Reference: ChEMBL document CHEMBL1146091, “Benzoylphenylurea sulfur analogues with potent antitumor activity” (J Med Chem, 2006)

Legend:
ASPC1 = experiment: Cytotoxicity against human ASPC1 cell line by MTT assay; type: functional, cell-based
MIA PaCa-2 = experiment: Cytotoxicity against human Miapaca2 cell line by MTT assay; type: functional, cell-based
PANC-1 = experiment: Cytotoxicity against human Panc1 cell line by MTT assay; type: functional, cell-based
Panc430 = experiment: Cytotoxicity against human Panc430 cell line by MTT assay; type: functional, cell-based
Panc203 = experiment: Cytotoxicity against human Panc203 cell line by MTT assay; type: functional, cell-based
Hs 766 = experiment: Cytotoxicity against human HS766 cell line by MTT assay; type: functional, cell-based
Panc1005 = experiment: Cytotoxicity against human Panc1005 cell line by MTT assay; type: functional, cell-based
LAPC4 = experiment: Cytotoxicity against human LAPC4 cell line by MTT assay; type: functional, cell-based
Tubulin = experiment: Inhibition of tubulin polymerization; type: protein-complex assay, Homo sapiens
CWR22R = experiment: Cytotoxicity against human CWR22R cell line by MTT assay; type: functional, cell-based; settings: 22Rv1
LNCaP = experiment: Cytotoxicity against human LnCaP cell line by MTT assay; type: functional, cell-based
MCF7 [1] = experiment: Induction of apoptosis in human MCF7 cell line at 100 nM after 48 hrs; type: functional
MCF7 [2] = experiment: Induction of apoptosis in human MCF7 cell line at 10 nM after 48 hrs; type: functional
MCF7 [3] = experiment: Induction of apoptosis in human MCF7 cell line at 30 nM after 48 hrs; type: functional
Tubulin (Homo sapiens) = Tubulin (Homo sapiens) (UniProt P68371+Q9H4B7+P0DPH7+P68366+Q13509+Q71U36+P04350+Q3ZCM7+P07437+P68363+Q9BQE3+Q6PEY2+Q13885+Q9BVA1+Q9BUF5); experiment: Inhibition of [3H]colchicine binding to tubulin at 5 uM; type: protein-complex assay

Q: For `O=C(NC(=O)c1ccccc1)Nc1ccc(Sc2ncc(Br)cn2)cc1`, which IC50 (ASPC1) is on record?
A: > 10000 nM

Q: What about the IC50 (MIA PaCa-2) of the same molecule?
A: 5000 nM

Q: And the IC50 (PANC-1)?
A: > 10000 nM

Q: What about the IC50 (Panc430) of the same molecule?
A: 2000 nM

Q: What about the IC50 (Panc203) of the same molecule?
A: 7500 nM

Q: What about the IC50 (Hs 766) of the same molecule?
A: 5500 nM

Q: And the IC50 (Panc1005)?
A: > 10000 nM

Q: Which IC50 (ASPC1) does the source give for `Nc1ccccc1C(=O)NC(=O)Nc1ccc(Sc2ncc(Br)cn2)cc1` here?
A: 450 nM

Q: And the IC50 (MIA PaCa-2)?
A: 95 nM

Q: What about the IC50 (PANC-1) of the same molecule?
A: 90 nM

Q: What about the IC50 (LAPC4) of the same molecule?
A: 100 nM

Q: And the IC50 (Panc430)?
A: 200 nM

Q: What about the IC50 (Tubulin) of the same molecule?
A: > 40000 nM

Q: And the IC50 (Panc203)?
A: 85 nM

Q: And the IC50 (CWR22R)?
A: 500 nM

Q: What about the IC50 (Hs 766) of the same molecule?
A: 700 nM

Q: What about the IC50 (Panc1005) of the same molecule?
A: 10000 nM

Q: And the IC50 (LNCaP)?
A: 500 nM

Q: Which results are given for `O=C(NC(=O)c1ccccc1[N+](=O)[O-])Nc1ccc(Sc2ncc(Br)cn2)cc1`?
A: IC50 (ASPC1): 1000 nM; Activity (MCF7 [1]): 53.6%; IC50 (MIA PaCa-2): 86 nM; IC50 (PANC-1): 85 nM; IC50 (LAPC4): 50 nM; IC50 (Panc430): 90 nM; IC50 (Tubulin): 2100 nM; Activity (MCF7 [2]): 29.7%; Activity (MCF7 [3]): 51.2%; IC50 (Panc203): 700 nM; IC50 (CWR22R): 50 nM; IC50 (Hs 766): 88 nM; IC50 (Panc1005): 10000 nM; inhibition (Tubulin (Homo sapiens)): 17%; IC50 (LNCaP): 50 nM

Q: Which results are given for `Nc1ccccc1C(=O)NC(=O)Nc1ccc(Sc2ncccn2)cc1`?
A: IC50 (ASPC1): 6000 nM; IC50 (MIA PaCa-2): 7000 nM; IC50 (PANC-1): 7500 nM; IC50 (Panc430): 6500 nM; IC50 (Panc203): 5500 nM; IC50 (Hs 766): 8000 nM; IC50 (Panc1005): > 10000 nM

Q: Which inhibition (Tubulin (Homo sapiens)) does the source give for `COc1cc([C@@H]2c3cc4c(cc3[C@H](O)[C@H]3COC(=O)[C@H]23)OCO4)cc(OC)c1OC` here?
A: 77%

Q: How did the IC50 (ASPC1) turn out when `Cc1cc(NC(=O)NC(=O)c2ccccc2N(C)C)ccc1Oc1ncc(Br)cn1` was run?
A: 850 nM

Q: And the Activity (MCF7 [1])?
A: 27.7%

Q: And the IC50 (MIA PaCa-2)?
A: 850 nM

Q: What about the IC50 (PANC-1) of the same molecule?
A: 700 nM

Q: What about the IC50 (LAPC4) of the same molecule?
A: 250 nM

Q: What about the IC50 (Panc430) of the same molecule?
A: 800 nM

Q: And the Activity (MCF7 [2])?
A: 16.1%

Q: What about the Activity (MCF7 [3]) of the same molecule?
A: 19.5%

Q: What about the IC50 (Panc203) of the same molecule?
A: 950 nM

Q: And the IC50 (CWR22R)?
A: 1000 nM

Q: What about the IC50 (Hs 766) of the same molecule?
A: 1000 nM

Q: What about the IC50 (Panc1005) of the same molecule?
A: 5000 nM

Q: And the IC50 (LNCaP)?
A: 500 nM

Q: `O=C(NC(=O)c1ccccc1[N+](=O)[O-])Nc1ccc(S(=O)(=O)c2ncc(Br)cn2)cc1` was tested. Which IC50 (ASPC1) did it give?
A: > 10000 nM

Q: And the IC50 (MIA PaCa-2)?
A: 6100 nM

Q: And the IC50 (PANC-1)?
A: > 10000 nM

Q: And the IC50 (LAPC4)?
A: 4000 nM

Q: And the IC50 (Panc430)?
A: > 10000 nM

Q: What about the IC50 (Panc203) of the same molecule?
A: > 10000 nM

Q: What about the IC50 (CWR22R) of the same molecule?
A: > 10000 nM

Q: And the IC50 (Hs 766)?
A: > 10000 nM

Q: And the IC50 (Panc1005)?
A: > 10000 nM

Q: What about the IC50 (LNCaP) of the same molecule?
A: 500 nM

Q: Which results are given for `O=C(NC(=O)c1ccccc1[N+](=O)[O-])Nc1ccc(Oc2ncc(Br)cn2)cc1`?
A: IC50 (ASPC1): 770 nM; IC50 (MIA PaCa-2): 740 nM; IC50 (PANC-1): 680 nM; IC50 (LAPC4): 200 nM; IC50 (Panc430): 10000 nM; IC50 (Tubulin): 4700 nM; IC50 (Panc203): > 10000 nM; IC50 (CWR22R): 5000 nM; IC50 (Hs 766): 470 nM; IC50 (Panc1005): > 10000 nM; inhibition (Tubulin (Homo sapiens)): 21%; IC50 (LNCaP): 1000 nM

Q: Which IC50 (ASPC1) does the source give for `Nc1ccccc1C(=O)NC(=O)Nc1ccc(Oc2ncc(Br)cn2)cc1` here?
A: 5200 nM

Q: And the IC50 (MIA PaCa-2)?
A: 920 nM

Q: What about the IC50 (PANC-1) of the same molecule?
A: 3500 nM

Q: What about the IC50 (LAPC4) of the same molecule?
A: 750 nM

Q: What about the IC50 (Panc430) of the same molecule?
A: > 10000 nM

Q: What about the IC50 (Tubulin) of the same molecule?
A: 36000 nM

Q: And the IC50 (Panc203)?
A: > 10000 nM

Q: And the IC50 (CWR22R)?
A: 2000 nM

Q: And the IC50 (Hs 766)?
A: 270 nM

Q: And the IC50 (Panc1005)?
A: > 10000 nM

Q: And the IC50 (LNCaP)?
A: 750 nM

Q: `O=C(NC(=O)c1ccccc1[N+](=O)[O-])Nc1ccc([S+]([O-])c2ncc(Br)cn2)cc1` (configuration not stated) was tested. Which IC50 (ASPC1) did it give?
A: 2500 nM

Q: And the IC50 (MIA PaCa-2)?
A: 8000 nM

Q: What about the IC50 (PANC-1) of the same molecule?
A: 6500 nM

Q: And the IC50 (Panc430)?
A: 5500 nM

Q: And the IC50 (Panc203)?
A: 5500 nM

Q: What about the IC50 (Hs 766) of the same molecule?
A: 6500 nM

Q: And the IC50 (Panc1005)?
A: 5500 nM

Q: With `O=C(NC(=O)c1ccccc1[N+](=O)[O-])Nc1ccc(Sc2ncccn2)cc1` as the molecule, how does the IC50 (LAPC4) read?
A: 600 nM

Q: And the IC50 (CWR22R)?
A: 5000 nM

Q: And the IC50 (LNCaP)?
A: 500 nM

Q: Which results are given for `O=C(NC(=S)Nc1ccc(Sc2ncc(Br)cn2)cc1)c1ccccc1`?
A: IC50 (ASPC1): 10000 nM; IC50 (MIA PaCa-2): 10000 nM; IC50 (PANC-1): 9500 nM; IC50 (LAPC4): 6000 nM; IC50 (Panc430): 7500 nM; IC50 (Panc203): > 10000 nM; IC50 (CWR22R): > 10000 nM; IC50 (Hs 766): 8500 nM; IC50 (Panc1005): > 10000 nM; IC50 (LNCaP): > 10000 nM
